Measurements as given in patent US10702504B2, “Degradation of tripartite motif-containing protein 24 (TRIM24) by conjugation of TRIM24 inhibitors with E3 ligase ligand and methods of use” (Dana-Farber Cancer Institute, Inc., priority 2016, dated 2020).

Assays:
[1] = molecular target: PHD-bromodomain of TRIM24 (Homo sapiens (Human), UniProt O15164); assay: TRIM24 binding alpha assay; conditions: Alpha Assay binding to TRIM24; compounds 50 μM to 0.002 μM
Procedure: The alpha TRIM24 binding assay is used to assess the binding of the compounds of the application. Compounds are added at various concentrations as well as a vehicle control. Compounds that bind to TRIM24 compete away the interaction between the PHD-bromodomain of TRIM24 bound to the donor bead, and the H3K23ac histone peptide bound to the acceptor bead, which causes a decrease in signal. IC50 values are calculated.
The alpha assay was used to assess the binding of the compounds of the application to TRIM24 at various concentrations. All compounds were added at concentrations from 50 μM to 0.002 μM. Compounds that bind to TRIM24 compete with the PHD-bromodomain of TRIM24 in interacting with the donor bead, and the H3K23ac histone peptide bound to the acceptor bead, which causes a decrease in signal. IC50 values were calculated by using Graphpad PRISM's log(inhibitor) vs. response—variable slope (four parameters).

[2] = molecular target: TRIM24 (Homo sapiens (Human), UniProt O15164); assay: Destabilization of TRIM24 over time in MCF7 cells (immunoblot); format: cell-based
Procedure: Wild-type or cereblon null 293T cells, or MCF7 cells, were treated with compounds of the application. The cells were treated for 4 hours or 18 hours with representative compounds at a final concentration of 10 μM, 5 μM, or 0.5 μM, or with a vehicle control. Cells were harvested and lysed using RIPA buffer with Halt protease inhibitors and 0.1% benzonase on ice for 15 minutes. The amount of total protein was quantified using the BCA assay. Primary antibodies used were TRIM24 (Cell Signaling Technology) as well as actin (Santa Cruz). Blots were imaged using secondary antibodies (LI-COR) on the OdysseyCLxImager. Band intensities were quantified using the LI-COR software. TRIM24 signal was normalized to the actin loading control. The signal intensity of TRIM24 from cells treated with DMSO was set to 1, and all other treatment conditions were normalized to the DMSO condition per immunoblot to determine the level of TRIM24, which was expressed as a ratio to the TRIM24 level in the DMSO treated cells.
In addition. MCF7 cells were treated for 24, 48, and 72 hours with representative compounds of the application at 5 μM.

Chain of TRIM24 (O15164 whole entry): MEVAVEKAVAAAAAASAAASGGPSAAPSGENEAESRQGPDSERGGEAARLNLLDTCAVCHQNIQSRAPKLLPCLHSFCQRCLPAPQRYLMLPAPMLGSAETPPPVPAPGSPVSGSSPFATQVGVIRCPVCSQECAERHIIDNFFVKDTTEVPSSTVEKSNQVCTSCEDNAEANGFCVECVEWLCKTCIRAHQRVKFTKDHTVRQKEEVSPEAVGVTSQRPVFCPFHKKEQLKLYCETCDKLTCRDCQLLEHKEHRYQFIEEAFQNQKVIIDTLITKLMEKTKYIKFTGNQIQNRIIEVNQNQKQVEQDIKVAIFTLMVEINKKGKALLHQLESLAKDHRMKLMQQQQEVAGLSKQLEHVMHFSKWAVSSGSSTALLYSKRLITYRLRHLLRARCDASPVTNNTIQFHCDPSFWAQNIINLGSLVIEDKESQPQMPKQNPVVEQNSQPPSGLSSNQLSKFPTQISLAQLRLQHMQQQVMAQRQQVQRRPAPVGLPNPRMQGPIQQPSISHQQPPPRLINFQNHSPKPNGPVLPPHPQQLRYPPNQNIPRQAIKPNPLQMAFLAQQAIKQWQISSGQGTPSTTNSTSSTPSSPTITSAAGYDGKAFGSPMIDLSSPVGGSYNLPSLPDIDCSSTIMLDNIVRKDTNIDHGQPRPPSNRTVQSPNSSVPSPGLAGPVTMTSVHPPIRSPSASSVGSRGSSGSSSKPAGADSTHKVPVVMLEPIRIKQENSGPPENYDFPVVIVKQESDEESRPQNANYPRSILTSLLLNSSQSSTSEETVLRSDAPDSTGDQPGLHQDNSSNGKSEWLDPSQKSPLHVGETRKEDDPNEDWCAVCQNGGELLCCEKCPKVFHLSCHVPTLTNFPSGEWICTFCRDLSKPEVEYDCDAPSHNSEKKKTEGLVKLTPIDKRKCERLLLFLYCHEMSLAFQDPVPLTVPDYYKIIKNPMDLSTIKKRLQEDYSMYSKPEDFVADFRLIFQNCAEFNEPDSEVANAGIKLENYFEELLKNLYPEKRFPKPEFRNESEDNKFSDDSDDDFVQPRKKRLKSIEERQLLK
Chain of PHD-bromodomain of TRIM24 (O15164 824-1006): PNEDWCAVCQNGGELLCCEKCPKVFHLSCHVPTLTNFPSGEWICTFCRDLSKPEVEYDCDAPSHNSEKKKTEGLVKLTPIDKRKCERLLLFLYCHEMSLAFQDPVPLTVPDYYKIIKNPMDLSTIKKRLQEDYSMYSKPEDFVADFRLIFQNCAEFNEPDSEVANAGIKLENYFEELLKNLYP

CCCOc1cccc(Oc2cc3c(cc2NS(=O)(=O)c2cccc(C(=O)NCCOCCOCCOCC(=O)N[C@H](C(=O)N4C[C@H](O)C[C@H]4C(=O)NCc4ccc(-c5scnc5C)cc4)C(C)(C)C)c2)n(C)c(=O)n3C)c1 [I-B3, (2S,4R)-1-((S)-15-(tert-butyl)-1-(3-(N-(1,3-dimethyl-2-oxo-6-(3-propoxyphenoxy)-2,3-dihydro-1H-benzo[d]imidazol-5-yl)sulfamoyl)phenyl)-1,13-dioxo-5,8,11-trioxa-2,14-diazahexadecan-16-oyl)-4-hydroxy-N-(4-(4-methylthiazol-5-yl)benzyl)pyrrolidine-2-carboxamide]
IC50 [1]: 50 to 100 nM
level of TRIM24 compared to vehicle ([2]; 5 μM, 24, 48 and 72 hours): significantly reduced
decrease in the level of TRIM24 over time ([2]; 5 μM, 24 h to 72 h): continued over a 24 h to 72 h period
